From patent US8637510B2, “Morpholinothiazoles as alpha 7 positive allosteric modulators” (Janssen Pharmaceutica NV, priority 2009, dated 2014)

Experiments:
human alpha 7-wt nAChR = biological target: T1, human alpha 7-wt nAChR (Homo sapiens, UniProt P36544); assay: Ca2+ flux imaging (FDSS) (Protocol B); format: cell-based; settings: for EC50: potentiation of 100 μM choline, compounds 0.01 μM to 30 μM, read-out: a7-PAM-G_[33]_pEC50 pEC50 (converted); for Emax: read-out: a7-PAM-G_[33]_Eff_Curve_FI % Efficacy
T1 construct: expressed in transfected cells
T1 sequence (P36544 23-502): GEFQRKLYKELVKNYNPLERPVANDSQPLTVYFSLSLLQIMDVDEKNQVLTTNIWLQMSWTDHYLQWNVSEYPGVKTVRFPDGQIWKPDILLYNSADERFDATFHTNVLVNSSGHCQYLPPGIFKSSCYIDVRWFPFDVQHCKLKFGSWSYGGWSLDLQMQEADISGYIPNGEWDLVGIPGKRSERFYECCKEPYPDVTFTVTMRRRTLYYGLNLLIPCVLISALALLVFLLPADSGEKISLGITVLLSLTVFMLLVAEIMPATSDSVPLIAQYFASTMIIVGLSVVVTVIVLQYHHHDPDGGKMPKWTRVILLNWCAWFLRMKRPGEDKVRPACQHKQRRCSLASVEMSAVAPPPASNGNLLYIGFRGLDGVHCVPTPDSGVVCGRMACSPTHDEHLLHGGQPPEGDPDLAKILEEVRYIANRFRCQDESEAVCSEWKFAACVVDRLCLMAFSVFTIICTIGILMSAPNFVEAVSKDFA
Procedure, shortened: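 PAM activity was measured as FDSS calcium fluorescence in α7-wt nAChR cells loaded with 2 μM Fluo-4AM, with compounds at 0.01–30 μM added alongside or 10 min ahead of sub-maximal 100 μM choline. Peak responses were normalised to choline-only efficacy, and EC50 was taken at half-maximal effect.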

[1] = biological target: T2, human alpha 7-wt nAChR-expressing GH4C1 cells (Homo sapiens, UniProt P36544); assay: Patch-clamp current recording (whole-cell voltage-clamp, PAM type classification); format: cell-based; set-up: key: Type 0 compounds minimally change the effect size of the current elicited by 1 mM choline.; Type 1 compounds enhance the effect size of the current elicited by 1 mM choline but minimally alter the kinetics of the receptor.; Type 2 compounds enhance the effect size of the current elicited by 1 mM choline while reducing the rate and/or the extent of desensitization.; Type 3 compounds enhance the effect size of the current elicited by 1 mM choline. When tested at higher concentrations up to 10 μM they completely inhibit desensitization; Type 4 compounds allow for an initial desensitization of the receptor followed by a re-opening of the receptor during agonist application; settings: 1 mM choline
T2 construct: expressed in transfected cells
T2 sequence (P36544 23-502): as above
Procedure: The compounds of the present invention are classified as type 1-4, based on qualitative kinetic properties, as determined by whole-cell voltage-clamp recordings. This classification is based on the effect of an alpha 7 PAM compound, as described hereinbefore, on the signal elicited by an agonist application. In particular, said agonist is choline at a concentration of 1 mM. In a preferred experimental setting, said alpha 7 PAM compound and choline are simultaneously applied to the cell, as described hereinafter. Desensitization is defined as the closure of the receptor upon activation during the application of the agonist in whole-cell voltage-clamp electrophysiology measurements seen as the reduction of the […] current after initial activation by the agonist.
The definition of the PAM types 1-4 is described hereinafter: • Type 0 compounds minimally change the effect size of the current elicited by 1 mM choline. • Type 1 compounds enhance the effect size of the current elicited by 1 mM choline but minimally alter the kinetics of the receptor. In particular, the rate and the extent of desensitization and of deactivation of the receptor elicited by the agonist is not affected. The compound-modulated response to 1 mM choline, therefore, is close to a linear scaling of the 1 mM choline response in absence of the alpha 7 PAM compound. • Type 2 compounds enhance the effect size of the current elicited by 1 mM choline while reducing the rate and/or the extent of desensitization. Deactivation of the receptor is generally unaffected. • Type 3 compounds enhance the effect size of the current elicited by 1 mM choline. […] Deactivation of the receptor may be slowed down • Type 4 compounds allow for an initial desensitization of the receptor followed by a re-opening of the receptor during agonist application. At low-potency concentrations of the alpha 7 PAM compound, the agonist-induced activation, which is followed by desensitization, can still be separated from the compound-induced re-opening as an initial inward current-maximum. At higher potency concentrations of the alpha 7 PAM compound, the re-opening occurs faster than the closure due to desensitization so that the initial current-maximum disappears.
A compound was considered to have interesting PAM-like activity when the potentiation of the peak current was at least 200% compared to the control choline response (=100%). Such compounds are classified as belonging to a particular PAM type in the Experimental Part. Compounds not meeting the condition are not classified as belonging to a particular PAM-type.
The compounds also have a potentiating effect on the response to choline when measured by whole-cell patch clamp electrophysiology in GH4C1 cells stably over-expressing the human wild-type alpha 7 receptor.
Patch-clamp recording from mammalian cells has provided a powerful means of assessing the function of membrane-bound proteins thought to be subunits of ligand-gated ion channels. Activation of such proteins by endogenous or exogenous ligands cause opening of a pore associated with the receptor through which ions flow down their electrochemical gradient. In the case of the human alpha 7-wt nAChR-expressing GH4C1 recombinant cell line the preferential permeability to calcium of this receptor means that calcium flows into the cell upon activation by ACh, choline and other nicotinic ligands giving rise to a calcium current. Since this receptor rapidly desensitizes in the presence of agonist it is important that an application system is used which is capable of very rapid switching of solutions (<100 ms) to prevent partial or full desensitisation of receptor responses coincident with the time of agonist application. Consequently, a second convenient technique to assess the enhancement of nicotinic efficacy is a patch-clamp recording from human alpha 7-wt nAChR-expressing GH4C1 cells coupled with a rapid-application system. […]

[2] = efficacy of 100 μM choline defined as 100% in the absence of a PAM

a7-PAM-G_[33]_Eff_Curve_FI % Efficacy (human alpha 7-wt nAChR; [2]) [%]	EC50 (human alpha 7-wt nAChR) [nM]	Emax (human alpha 7-wt nAChR; [2]) [%]	melting point [°C]	SMILES	PAM_Type PAM type [1]
735	21.4	–	–	Cc1cc(-c2sc(N3CC(C)OC(C(F)(F)F)C3)nc2CNC(=O)CC2CC2)cc(C)n1 (racemic) [Compound 202, N-[[5-(2,6-dimethyl-4-pyridinyl)-2-[2-methyl-6-(trifluoromethyl)-4-morpholinyl]-4-thiazolyl]methyl]-cyclopropaneacetamide]	2
–	955	645	–	Cc1cc(-c2sc(N3CCOC(C)C3)nc2CNC(=O)c2conc2C)cc(C)n1 (single isomer, unassigned) [Compound 69, N-[[5-(2,6-dimethyl-4-pyridinyl)-2-[(2S*)-2-methyl-4-morpholinyl]-4-thiazolyl]methyl]-3-methyl-4-isoxazolecarboxamide]	2
–	724	–	–	Cc1cc(-c2sc(N3CCOC(C)C3)nc2CNC(=O)c2conc2C)cc(C)n1 (single isomer, unassigned) [Compound 73, N-[[5-(2,6-dimethyl-4-pyridinyl)-2-[(2R*)-2-methyl-4-morpholinyl]-4-thiazolyl]methyl]-3-methyl-4-isoxazolecarboxamide]	2
–	67.6	–	–	Cc1cc(-c2sc(N3C[C@@H](C)O[C@@H](C)C3)nc2CNC(=O)C2CCC2)cc(C)n1 [Compound 2, N-[[2-[(2R,6S)-2,6-dimethyl-4-morpholinyl]-5-(2,6-dimethyl-4-pyridinyl)-4-thiazolyl]methyl]-cyclobutanecarboxamide]	2
–	135	568	–	Cc1cc(-c2sc(N3C[C@@H](C)O[C@@H](C)C3)nc2CNC(=O)c2ccccc2Cl)cc(C)n1 [Compound 5, 2-chloro-N-[[2-[(2R,6S)-2,6-dimethyl-4-morpholinyl]-5-(2,6-dimethyl-4-pyridinyl)-4-thiazolyl]methyl]-benzamide]	2
–	316	723	–	Cc1cc(-c2sc(N3C[C@@H](C)O[C@@H](C)C3)nc2CNC(=O)c2cccc(F)c2)cc(C)n1 [Compound 7, N-[[2-[(2R,6S)-2,6-dimethyl-4-morpholinyl]-5-(2,6-dimethyl-4-pyridinyl)-4-thiazolyl]methyl]-3-fluoro-benzamide]	2
–	457	452	–	Cc1cc(-c2sc(N3C[C@@H](C)O[C@@H](C)C3)nc2CNC(=O)c2ccc(F)cc2)cc(C)n1 [Compound 8, N-[[2-[(2R,6S)-2,6-dimethyl-4-morpholinyl]-5-(2,6-dimethyl-4-pyridinyl)-4-thiazolyl]methyl]-4-fluoro-benzamide]	2
–	240	566	–	Cc1cc(-c2sc(N3C[C@@H](C)O[C@@H](C)C3)nc2CNC(=O)c2cccc(Cl)c2)cc(C)n1 [Compound 9, 3-chloro-N-[[2-[(2R,6S)-2,6-dimethyl-4-morpholinyl]-5-(2,6-dimethyl-4-pyridinyl)-4-thiazolyl]methyl]-benzamide]	2
–	83.2	630	–	Cc1cc(-c2sc(N3C[C@@H](C)O[C@@H](C)C3)nc2CNC(=O)c2ccc(Cl)cc2Cl)cc(C)n1 [Compound 10, 2,4-dichloro-N-[[2-[(2R,6S)-2,6-dimethyl-4-morpholinyl]-5-(2,6-dimethyl-4-pyridinyl)-4-thiazolyl]methyl]-benzamide]	2
–	813	703	–	Cc1cc(-c2sc(N3C[C@@H](C)O[C@@H](C)C3)nc2CNC(=O)c2ccc(OC(F)(F)F)cc2)cc(C)n1 [Compound 11, N-[[2-[(2R,6S)-2,6-dimethyl-4-morpholinyl]-5-(2,6-dimethyl-4-pyridinyl)-4-thiazolyl]methyl]-4-(trifluoromethoxy)-benzamide]	2
–	550	595	–	Cc1cc(-c2sc(N3C[C@@H](C)O[C@@H](C)C3)nc2CNC(=O)c2cccc(C#N)c2)cc(C)n1 [Compound 12, 3-cyano-N-[[2-[(2R,6S)-2,6-dimethyl-4-morpholinyl]-5-(2,6-dimethyl-4-pyridinyl)-4-thiazolyl]methyl]-benzamide]	2
–	288	593	–	Cc1cc(-c2sc(N3C[C@@H](C)O[C@@H](C)C3)nc2CNC(=O)c2ccc(F)cc2F)cc(C)n1 [Compound 13, N-[[2-[(2R,6S)-2,6-dimethyl-4-morpholinyl]-5-(2,6-dimethyl-4-pyridinyl)-4-thiazolyl]methyl]-2,4-difluoro-benzamide]	2
–	339	787	–	Cc1cc(-c2sc(N3C[C@@H](C)O[C@@H](C)C3)nc2CNC(=O)c2ccc(F)c(F)c2F)cc(C)n1 [Compound 14, N-[[2-[(2R,6S)-2,6-dimethyl-4-morpholinyl]-5-(2,6-dimethyl-4-pyridinyl)-4-thiazolyl]methyl]-2,3,4-trifluoro-benzamide]	2
–	170	411	–	Cc1cc(-c2sc(N3C[C@@H](C)O[C@@H](C)C3)nc2CNC(=O)c2cc(F)cc(F)c2)cc(C)n1 [Compound 15, N-[[2-[(2R,6S)-2,6-dimethyl-4-morpholinyl]-5-(2,6-dimethyl-4-pyridinyl)-4-thiazolyl]methyl]-3,5-difluoro-benzamide]	2
–	1000	499	–	Cc1cc(-c2sc(N3C[C@@H](C)O[C@@H](C)C3)nc2CNC(=O)c2cccnc2C)cc(C)n1 [Compound 17, N-[[2-[(2R,6S)-2,6-dimethyl-4-morpholinyl]-5-(2,6-dimethyl-4-pyridinyl)-4-thiazolyl]methyl]-2-methyl-3-pyridinecarboxamide]	2
–	100	378	–	Cc1cc(-c2sc(N3C[C@@H](C)O[C@@H](C)C3)nc2CNC(=O)c2ccc(Cl)cc2)cc(C)n1 [Compound 19, 4-chloro-N-[[2-[(2R,6S)-2,6-dimethyl-4-morpholinyl]-5-(2,6-dimethyl-4-pyridinyl)-4-thiazolyl]methyl]-benzamide]	2
–	3980	632	206	Cc1cc(-c2sc(N3CC4CCC(C3)O4)nc2CNC(=O)c2cc(C)on2)cc(C)n1 [Compound 210, N-[[5-(2,6-dimethyl-4-pyridinyl)-2-(8-oxa-3-azabicyclo[3.2.1]oct-3-y1)-4-thiazolyl]methyl]-5-methyl-3-isoxazolecarboxamide]	–
–	4900	246	94	Cc1cc(-c2sc(N3CC4CCC(C3)O4)nc2CNC(=O)c2conc2C)cc(C)n1 [Compound 211, N-[[5-(2,6-dimethyl-4-pyridinyl)-2-(8-oxa-3-azabicyclo[3.2.1]oct-3-yl)-4-thiazolyl]methyl]-3-methyl-4-isoxazolecarboxamide]	–
